The text below walks through data of the NIST ThermoML archive (doi:10.1021/je200146j).

The series can be described thus: mn = molality of the nth substance listed, in mol/kg. Conditions: 101 kPa, Liquid, m1 = 0.512; for speed of sound: Sing-around technique in a fixed-path interferometer; for mass density: Vibrating tube method.

The structures appear in SMILES notation. ± gives the expanded uncertainty stated by the source.

By speed of sound is commonly meant how fast a sound wave travels through the sample. One may read the mass density as mass per unit of volume. With `O=[N+]([O-])[O-].[K+]` [potassium nitrate] + O, the speed of sound runs as follows: (298.15 K) 1517.8 ± 4.1 m/s; (303.15 K) 1526.8 ± 4.1 m/s; (308.15 K) 1536.3 ± 4.1 m/s; (313.15 K) 1544.4 ± 4.1 m/s; (318.15 K) 1551.1 ± 4.1 m/s; (323.15 K) 1556.6 ± 4.1 m/s. In addition, the mass density is, setting by setting: (298.15 K) 1027.98 ± 1 kg/m3; (303.15 K) 1026.22 ± 1 kg/m3; (308.15 K) 1024.1 ± 1 kg/m3; (313.15 K) 1022.05 ± 1 kg/m3; (318.15 K) 1020.2 ± 1 kg/m3; (323.15 K) 1018.2 ± 1 kg/m3.

In the case of `O=S(=O)([O-])[O-].[K+].[K+]` [potassium sulfate] + O, the speed of sound (298.15 K) worked out at 1563.6 ± 4.1 m/s; the speed of sound (303.15 K) amounted to 1571.6 ± 4.1 m/s; the speed of sound (308.15 K) worked out at 1580.3 ± 4.1 m/s; the speed of sound (313.15 K) is 1587.6 ± 4.1 m/s; the speed of sound (318.15 K) is on record as 1593.5 ± 4.1 m/s; the speed of sound (323.15 K) was determined as 1598.3 ± 4.1 m/s. The mass density reads like this: (298.15 K) 1063.81 ± 1 kg/m3; (303.15 K) 1062.02 ± 1 kg/m3; (308.15 K) 1060.06 ± 1 kg/m3; (313.15 K) 1057.74 ± 1 kg/m3; (318.15 K) 1055.14 ± 1 kg/m3; (323.15 K) 1052.95 ± 1 kg/m3.
